From patent US6448287B1 (priority 1999, dated 2002)
In brackets after ≈: the same amount, converted by molar mass. Where two headings read alike, the source gives them in different places.

Legend:
[1] = tested on: Mia PaCa (Pancreatic Carcinoma); experiment: Toxicity test in cell monolayers, Mia PaCa; assay type: cell-based; settings: Homo sapiens, MIA PaCa-2, 96 h, lipoic acid as sodium salt
Procedure: (§1) In solid tumors, proliferating cells are sometimes more sensitive to treatment than quiescent, non-proliferating cells. To investigate this in cell monolayers, we used sparse plating densities (6K/well in a 96 well plate) to allow cell proliferation and confluent densities (24K/well in a 96 well plate) to simulate quiescent cells. Cells were plated in 96 well plates at sparse or confluent densities and then incubated four days in growth medium supplemented with various doses of antioxidants. After incubation, cell numbers were determined by standard […] techniques. Data were analyzed by scaling the cell number at any given antioxidant dose to that of the control and fitting the dose-response data to a sigmoid curve. Values of LC50, the dose required to reduce cell number by fifty percent relative to untreated controls, were computed from the sigmoid data fit.

[2] = tested on: SW620 (Colon Adenocarcinoma); experiment: Toxicity test in cell monolayers, SW620; assay type: cell-based; settings: Homo sapiens, SW-620, 96 h, lipoic acid as sodium salt
Procedure: as §1

[3] = Phase one clinical trial of continuous ascorbate infusions (safety); settings: doses up to 50 g/day
Procedure: (§2) A person with diagnosed metastatic prostate cancer was infused intravenously with […] sodium ascorbate in sterile water over an eighty minute period. Blood samples were taken at regular intervals over a twenty-four hour period, frozen, and then analyzed for ascorbate content using a colorimetric assay. The ascorbate plasma concentration was analyzed in a prostate cancer patient given a 60 gram intravenous infusion of sodium ascorbate over an 80 minute period. […] The plasma volume Vp, was fixed at 30 dl. […] Predicted plasma ascorbate levels from a two compartment, four parameter pharmacokinetic model of ascorbate transport and clearance in blood. […] Infusion is modeled as continuous. Parameter values for the compartmental model are as follows: KX=0.124 min^−1, K1=0.124 min^−1, K2=0.038 min^−1. The plasma volume Vp, was fixed at 30 dl. A phase one clinical trial is currently under way to assess the safety of continuous ascorbate infusions, and is currently near completion.

[4] = tested on: SW620 hollow fiber tumors
Procedure: (§3) SW620 hollow fiber solid tumors were grown as previously described. […] SW620 colon carcinoma cells were prepared in cell culture medium at a concentration of 10^7 cells/ml and injected into the hollow fibers. The fibers were then heat sealed at roughly 2 cm intervals to trap the cells inside them. SW620 hollow fibers were then cultured in Petri dishes for three days. After three days, the hollow fibers are transferred to stirred medium either by moving them to spinner flasks containing 50 ml cell culture medium stirred at 150 rpm by a magnetic stirrer or by transferring them to six-well plates placed on an orbital shaker at 150 rpm. Cell culture medium was replenished on days three and six. […] After one or two days incubation on an orbital shaker, the hollow fiber tumors were rinsed and the cells were extruded out of the fibers with trypsin. The cylindrical tumor cell mass was exposed to trypsin while pipetting up and down to form a single cell suspension. Cell culture medium was then added to stop trypsin action. Surviving fractions were determined as previously described. Briefly, cells were transferred to ninety-six-well plates at a concentration of 5000 cells per well and incubated for six days. The surviving cell population was then measured using the SRB colorimetric assay. Surviving fraction was expressed as the ratio of the SRB staining at a given dose to that for cells from untreated hollow fiber tumors.
(§4) The surviving fractions without ascorbate (denoted SFO) were analyzed along with the doses of ascorbate required to reduce the surviving fraction to half the SFO value, denoted LC50. Standard deviations for SFO and LC50 values were analyzed by the curve-fitting program KalediaGraph (Synergy Software).
(§5) Data from three replicate experiments were pooled. The doses of ascorbate required to reduce the surviving fraction to half the control value were denoted as LC50. Standard deviations on LC50 values were estimated by the curve-fitting program kaleidaGraph (Synergy Software).

[5] = male, human, in vivo, iv
Procedure: as §2

[6] = humans, intravenous infusion, peak level; cited from earlier work
[7] = tested on: SK-MEL (Melanoma); experiment: Toxicity test in cell monolayers, SK-MEL; assay type: cell-based; settings: Homo sapiens, 96 h, lipoic acid as sodium salt
Procedure: as §1

[8] = tested on: MCF-7 (Breast Carcinoma); experiment: Toxicity test in cell monolayers, MCF-7; assay type: cell-based; settings: Homo sapiens, MCF7, 96 h, lipoic acid as sodium salt
Procedure: as §1

[9] = Toxicity test in cell monolayers, ECV-304; assay type: cell-based; settings: human, ECV-304 endothelial cell monolayer; read-out: LC50
Procedure: as §1

[10] = tested on: SW620 hollow fiber tumors; experiment: cells; settings: Homo sapiens, SW-620, read-out: ascorbate LC50 (dose reducing surviving fraction to half the control value)
Procedure: as §3, §4, §5

[11] = tested on: SW620 hollow fiber tumors; settings: hollow fiber solid tumor model, background statement; cited from earlier work
[12] = tested on: B16 melanoma; experiment: Murine tumor model: B16 melanoma in C57 mice; assay type: in vivo
Procedure: C57 mice were divided into groups of twenty and inoculated by B16 melanoma cells subcutaneously. After forty-eight hours, treatments were administered once every other day for a five week period by subcutaneous injection near the tumor site. Tumor size was measured on days ten, seventeen, and twenty-four of treatment. […]

**Q.** Which CC50 ([1]; read-out: LC50, Mia PaCa, confluent density (24K/well), four days incubation) does the source give for `O=C1O[C@H]([C@@H](O)CO)C(O)=C1O` [Ascorbate, ascorbic acid] here?
**A.** 3080 ± 330 µg/mL

**Q.** What about the CC50 ([1]; read-out: LC50, Mia PaCa, sparse density (6K/well), four days incubation) of the same molecule?
**A.** 530 ± 60 µg/mL

**Q.** What about the CC50 ([2]; read-out: LC50, SW620, confluent density (24K/well), four days incubation) of the same molecule?
**A.** 390 ± 140 µg/mL

**Q.** What about the CC50 ([2]; read-out: LC50, SW620, sparse density (6K/well), four days incubation) of the same molecule?
**A.** 300 ± 40 µg/mL

**Q.** What about the “safety of continuous ascorbate infusions” value [3] of the same molecule?
**A.** found safe

**Q.** And the surviving fraction ([4]; 52 mg/dL ascorbate for forty-eight hours, based on the data in EXAMPLE 2)?
**A.** greater than ninety percent

**Q.** And the K1 [5]?
**A.** 0.124 min⁻¹

**Q.** And the K2 [5]?
**A.** 0.038 min⁻¹

**Q.** And the KX [5]?
**A.** 0.124 min⁻¹

**Q.** What about the peak plasma value [5] of the same molecule?
**A.** 460 mg/dL

**Q.** What about the “maximum plasma ascorbic acid concentration generally achievable” value [6] of the same molecule?
**A.** roughly 500 mg/dL

**Q.** What about the CC50 ([7]; read-out: LC50, SK-MEL, confluent density (24K/well), four days incubation) of the same molecule?
**A.** 780 ± 160 µg/mL

**Q.** What about the CC50 ([7]; read-out: LC50, SK-MEL, sparse density (6K/well), four days incubation) of the same molecule?
**A.** 150 ± 20 µg/mL

**Q.** And the CC50 ([8]; read-out: LC50, MCF-7, confluent density (24K/well), four days incubation)?
**A.** 230 ± 30 µg/mL

**Q.** What about the CC50 ([8]; read-out: LC50, MCF-7, sparse density (6K/well), four days incubation) of the same molecule?
**A.** 120 ± 10 µg/mL

**Q.** What about the CC50 at 4 days [9] of the same molecule?
**A.** 1490 ± 160 µg/mL (≈ 8.46 mM)

**Q.** And the CC50 [10]?
**A.** 4900 µg/mL (≈ 27.8 mM)

**Q.** And the “ascorbate concentration that may be required to effectively treat tumors” value [11]?
**A.** > 500 mg/dL

**Q.** With `O=C(O)CCCCC1CCSS1` (racemic) [Lipoic Acid, DL-α-Lipoic Acid (DL-6,8-Thioctic Acid)] as the molecule, how does the “Animal Survival (percent)” value ([12]; day twenty-four, control 70%) read?
**A.** 90%

**Q.** And the “Animal Survival (survivors/group)” value ([12]; day twenty-four, groups of twenty, control 14/20)?
**A.** 18/20

**Q.** What about the “tumor size compared with the control group” value ([12]; measured on days ten, seventeen and twenty-four of treatment) of the same molecule?
**A.** significantly smaller

**Q.** What about the “toxic effect of lipoic acid itself (surviving fraction without ascorbate, SFO)” value ([4]; lipoic acid 5 mg/dl or 20 mg/dl, 48 hours) of the same molecule?
**A.** exhibited a toxic effect
